One data set has as its system HIV-1NL4-3. Description: In vitro anti-viral assay in human PBMCs (RT activity readout). Type of data set: cell-based. The protocol:
For the assay with human PBMCs, PHA stimulated cells from at least two pooled healthy were infected with HIV-1 strains in 96-well plates. Test drug dilutions, which were prepared at a 2X concentration in microtiter tubes and 100 μL of each concentration (nine total concentrations), were placed in appropriate wells using the standard format. 50 μL of a predetermined dilution of virus stock was placed in each test well (final MOI ≅ 0.1). The PBMC cultures were maintained for 7 days following infection at 37 °C, 5% CO2. After this period, cell-free supernatant samples were collected for analysis of reverse transcriptase (RT) activity. All assays were conducted in triplicates. For RT assay, a microtiter plate-based reverse transcriptase (RT) reaction was utilized (Buckheit et al., AIDS Research and Human Retroviruses 7:295–302, 1991). Tritiated thymidine triphosphate (^3H-TTP, 80 Ci/mmol, NEN) is received in 1:1 dH2O: Ethanol at 1 mCi/mL. Poly rA:oligo dT template:primer (GE Healthcare) was prepared as a stock solution by combining 150 μL poly rA (20 mg/mL) with 0.5 mL oligo dT (20 units/mL) and 5.35 mL sterile dH2O followed by aliquoting (1.0 mL) and storage at—20°C. The RT reaction buffer was prepared fresh on a daily basis and consisted of 125 μL 1.0 M EGTA, 125 μL dH2O, 125 μL 20% Triton X100, 50 μL 1.0 M Tris (pH 7.4), 50 μL 1.0 M DTT, and 40 μL 1.0 M MgCl2. The final reaction mixture was prepared by combining 1 part ^3H-TTP, 4 parts dH2O, 2.5 parts poly rA:oligo dT stock and 2.5 parts reaction buffer. Ten microliters of this reaction mixture were placed in a round bottom microtiter plate and 15 μL of virus containing supernatant is added and mixed. The plate was incubated at 37°C for 60 mins. Following incubation, the reaction volume was spotted onto DE81 filter-mats (Wallac), washed 5 times for 5 mins each in a 5% sodium phosphate buffer or 2X SSC (Life Technologies). Next they were washed 2 times for 1 min each in distilled water, 2 times for 1 min each in 70% ethanol, and then dried. Incorporated radioactivity (counts per min, CPM) was quantified using standard liquid scintillation techniques. These PBMC analysis was conducted by fee to service through Southern Research Institute (Frederick, MD, USA). The IC50 were analyzed using GraphPad Prism (Version 9) and presented as means ± S.D. of the triplicates.

The next data set deals with human PBMCs. Kind of data set: Tissue culture cytotoxicity measurement in human PBMCs. It is filed as cell-based. The text has this: Multiple chemical scaffolds such as quinoline (BI224436, Fig 1A), benzothiazole (GS-9822, Fig 1B) and pyridine (KF116, Fig 1C) were previously explored for the discovery of ALLINIs. Here, we employed the pyrrolopyridine-based scaffold to synthesize an ALLINI candidate compound, STP0404 (Fig 1D). STP0404 harbors the tert-butoxy moiety that is common to other ALLINIs (Fig 1). First, we measured its in vitro anti-HIV-1 efficacy and cytotoxicity using various HIV-1 strains in multiple cell types, with cytotoxicity initially tested up to 10 μM (Table 1). […] The calculated in vitro minimum therapeutic index (TI) of STP0404 under these conditions was accordingly >25,000. For comparison, we employed two FDA-approved HIV-1 inhibitors, AZT (RT inhibitor) and Raltegravir (Ral, INSTI), alongside 5 different Ral-resistant clinical isolates (Table 1).

Data set [1] has as its system HIV-GFP in LEDGF/p75 knockout Jurkat cell lines (1-F10 and 2-C10). Description: HIV-1 inhibition in infecting LEDGF/p75 knockout cells. Type of data set: cell-based. The settings on record: 60 nM. The method, then: To test for STP0404’s inhibitory effects during the late stage of HIV-1 life cycle such as the maturation step, we employed the “producing cells” setup. In T75 tissue culture flasks, 293T cells were pre-treated with and without STP0404 (0 and 60 nM) for 2 hrs prior to transfection with pD3-HIV (13 μg) and pVSV-g (6 μg), using 0.3 mg/ml polyethylenimine. After 24 hrs incubation at 37°C, the supernatant was removed and replaced with fresh media with and without STP0404 (0 and 60 nM). 48 hrs later, D3-HIV vector from each treatment group was concentrated from the collected supernatant via ultracentrifugation (22,000 rpm for 2 hrs). Following p24 quantification, using 96-well plates, similar amount of respective D3-HIV vector was used to transduce Jurkat cells in triplicates for 48 hrs. The cells were harvested and fixed with 3.7% formaldehyde before being analyzed for GFP expression using FACS (Miltenyi Biotec, VYB). Separately, the “infecting cells” setup was used to investigate the inhibitory effects of STP0404 against the early stages of HIV-1 life cycle such as the integration and transcription steps. […] All data were analyzed using GraphPad Prism (Version 9). Unpaired t tests were performed to determine the significance of the readings in respective experimental set up relative to the untreated controls. […]

Data set [2] can be described thus: Safety pharmacology: effects on the central nervous system in rats. Type of data set: in vivo. As to conditions: single oral 100, 300 and 600 mg/kg. The method, then: Effects on the Respiratory System in Rats (Study no. YL18404). Four groups of eight male rats were given a single oral administration of STP0404 at doses of 100, 300 and 600 mg/kg. STP0404 was administered as a suspension in 0.5% MC in a volume of 10 mL/kg. […] Measurements were conducted at pre-dosing and 0.5, 1, 3, 6 12 and 24 hrs post-dosing, and respiratory rate, tidal volume and minute volume were investigated (INA Research, Japan). Effects on the Central Nervous System in Rats (Study no. YL18405). Four groups of six male rats were given a single oral administration of STP0404 at doses of 0 (vehicle), 100, 300 and 600 mg/kg. The test article was administered as a suspension in 0.5% MC in a volume of 10 mL/kg. […] Blinded observations were conducted pre-dosing and 0.5, 1, 3, 6, 12 and 24 hrs post-dosing on rats body temperature, pupil size, landing foot-splay and grip strength in functional observational battery. Effects on the Cardiovascular System in Dogs (Study no. YL18406). STP0404 at dose levels of 30, 60 and 90 mg/kg were administered orally (by capsules) to four male Beagle dogs in a design with 7-day intervals between doses. Heart rate, blood pressure (systolic, diastolic and mean) and electrocardiographic (ECG) parameters (PR, QT and QTc intervals and QRS duration) were evaluated at pre-dosing and 0.5, 1, 2, 4, 8 and 24 hrs post-dosing. […]

Take `Cc1nc2c(c(C)c(C)n2Cc2cnn(C)c2)c(-c2ccc(Cl)cc2)c1[C@H](OC(C)(C)C)C(=O)O` [STP0404]: half-maximal inhibition in the data set on HIV-1NL4-3 (Human immunodeficiency virus 1, NL43, PBMC) (IC50) was put at 0.41 ± 0.43 nM. Further, the “TI (TC50 / IC50)” value in the data set with HIV-1NL4-3 (human PBMCs, NL4-3, minimal TI from IC50 and 10 μM) is listed as >24,000. Moreover, the TC50 was >10,000 nM in the data set with human PBMCs (human); >10,000 nM in the data set on human PBMCs (human PBMCs, NL4-3, tested up to 10 μM); > 10 µM with human PBMCs (human PBMCs, no observable cytotoxicity at 10 μM). In data set [1], the “infection of LEDGF/p75 knockout Jurkat T cells” value is given as “failed to significantly inhibit infection”. The “safety pharmacology concerns, central nervous system” value in data set [2] is “did not induce any safety pharmacology concerns”.
